Measurements from patent US11096985B2, “Antimicrobial peptides, their variants and uses” (priority 2015, dated 2021).
In brackets after ≈: the same amount, converted by molar mass. Entries after “also recorded” stand apart in the source; their conditions may differ. Where a SMILES comes first, the peptide text is derived from it.

What was measured:
[1] = system: Klebsiella pneumoniae (ATCC 10031); format: cell-based; details: ATCC 10031
Description: (§1) Minimum inhibition concentrations (MICs) were determined against Escherichia coli (ATCC 25922), Staphylococcus aureus (ATCC 25923), Klebsiella pneumoniae (ATCC 10031) and Pseudomonas aeruginosa (ATCC 27853). Also clinical strains of E. coli, K. pneumoniae, E. cloacae, P. aeruginosa, Serratia marcescens, Proteus mirabilis, S. pneumoniae, Acinetobacter baumannii, A. johnsonii and S. aureus were used for MICs assays. Additionally, clinical strains of yeast including Candida albicans, C. glabrata, C. parapsilosis and C. quillermondiae were used. The susceptibility of these microorganisms to Chain peptides were determined using micro broth dilution assay. Colonies of the respective microorganism from Muller Hinton (MH) agar plates incubated overnight were suspended in MH broth media and final concentration of microorganism was adjusted to 5.0×10^5 cfu/ml. An aliquot of 10 μl of each Chain peptide, or gentamicin, tetracycline as reference antibiotics were added in differing concentrations along with 90 μl of bacterial suspension to 96 well polypropylene plates and incubated at 37° C. for 20 to 24 hours. Concentrations of Chain peptides and reference antibiotics ranged from 0.125 to 128 μg/ml and the MICs were recorded as the lowest concentration with no visual growth of bacteria. Similarly, antifungal MICs were tested in Potato dextrose broth.

[2] = system: Escherichia coli (ATCC 25922); format: cell-based; details: ATCC 25922
Description: as §1

[3] = system: Staphylococcus aureus (ATCC 25923); format: cell-based; details: ATCC 25923
Description: as §1

[4] = system: Pseudomonas aeruginosa (ATCC 27853); format: cell-based; details: ATCC 27853
Description: as §1

4 ATCC bacterial strains = experiment: Effect of NaCl on MIC; format: cell-based; details: 200 mM NaCl in MH medium
Description: (§4) Thermal stability was evaluated by diluting peptides to the concentration of 2 mg/ml in PBS buffer (pH 7.4) and incubating at different temperatures, such as +4° C., 25° C. (RT), 37° C. and 45° C., peptides stored at −20° C. were used as control. […] Peptides were also tested by diluting them at different pH values starting from pH 4 to 9. The effect of NaCl on the antimicrobial activity was tested by adding different concentrations (50, 100 and 200 mM) of NaCl to MH medium and the minimum inhibitory concentrations were tested against 4 ATCC bacterial strains.

[5] = system: gram positive and negative bacteria; experiment: MIC by micro broth dilution, summary over the strains tested; format: cell-based
Description: as §1

[6] = system: Penicillium chrysogenum (DSM 1075); experiment: Radial diffusion assay, antifungal, P. chrysogenum; format: cell-based; details: 20 μg
Description: (§2) The radial diffusion assay (RDA) was carried out as described by Andersen et al. (2010). Briefly, 30 ml of 1/10 Muller-Hinton broth (MHB) supplemented with 1% agarose and 5.0×10^5 CFU/ml S. aureus or E. coli or K. pneumoniae, P. aeruginosa cells was poured into a single-well omnitray (Nunc) and overlaid with a TSP 96-well plate. One hundred μg of each synthesized peptide was tested. The peptides were also tested against Fusarium oxysporum and Verticillium dahliae, for which 1/3 potato dextrose agarose was used. To test the synergistic effect of peptides, each peptide was mixed in equimolar concentrations. Mix1 (met1-12), Mix2 (met3, 4 and 5), Mix3 (met 8, 9 and 10), Mix 4 (met11, 12) and Mix5 (8, 9, 10, 11, 12) were prepared and tested against E. coli and S. aureus. Gentamicin and vancomycin were included as positive controls for bacteria and amphotericin B was used as the control for fungi.
(§3) By using rational design techniques, we have designed variants of peptides by incorporating or replacing various amino acids in the original peptides. Thus, we have designed and modified Chain 100, Chain 200 and Chain 300 with tryptophan (W), arginine (R) and lysine (K) at various positions to improve antimicrobial activity (FIGS. 4a-c and 5a-c). In some peptides we have also used other amino acids such as Leucine (L), Cysteine (C), Isoleucine (I), Phenylalanine (F) and Alanine (A). For synthesis, 32 variants and 3 original peptides were selected based on the various parameters such as positive charge, aliphatic index and instability index. Peptides variants were tested by using radial diffusion assay against Escherichia coli (ATCC 25922), Staphylococcus aureus (ATCC 25923), Klebsiella pneumoniae (ATCC 10031) and Pseudomonas aeruginosa (ATCC 27853) (FIGS. 6a-c). The zone of inhibition ranged between 10-18 mm for Escherichia coli and Staphylococcus aureus, 6-18 mm & 8-18 mm for Pseudomonas aeruginosa and Klebsiella pneumonia respectively (Table 2). For Gentamicin it was between 22-24 mm. Antifungal activity was tested for promising antibacterial peptides (Chains 104, 105, 109, 201, 204, 306, 307, 308, 310) against Aspergillus flavus (DSM 1959) and Penicillium chrysogenum (DSM 1075). All these peptides has activity at a concentration of 20 μg, Amphotericin B was used as a positive control at 20 μg (FIG. 7).

[7] = pH 4-9, RDA
Description: as §4

[8] = system: Aspergillus flavus (DSM 1959); experiment: Radial diffusion assay, antifungal, A. flavus; format: cell-based; details: 20 μg
Description: as §2, §3

[9] = +4, 25, 37 and 45° C., 14 days, PBS pH 7.4, RDA with 20 μg
Description: as §4

human erythrocytes = format: cell-based
Description: In hemolysis assays, the ability of peptides at 128 μg/ml concentration to lyse human erythrocytes to release hemoglobin was measured. The peptides described here preferably have low hemolytic activity (0.2 to 3.8% hemolysis) in mammal body. […] These peptides are useful as antimicrobial drugs as they show little or no side effects at concentrations needed to kill bacteria.
Minimum inhibition concentrations (MICs) were tested by microbroth dilution method and Chain 104, 105 and 109 inhibited the growth of Escherichia coli (ATCC 25922), Staphylococcus aureus (ATCC 25923), Klebsiella pneumoniae (ATCC 10031) and Pseudomonas aeruginosa (ATCC 27853) between 1-8 μg/ml respectively (Tables 3a, 3b and 3c). The membranolytic activities of the peptides were tested by measuring the release of hemoglobin from erythrocytes of fresh blood donated by voluntiers. Hemoglobin levels were determined spectrometrically by taking OD at 540 nm by following the protocol of Schmidtchen et al., 2011.

E. coli = experiment: Transmission electron microscopy of treated E. coli; format: cell-based, Escherichia coli; details: 10 μg/ml, 37° C., 1 h
Description: E. coli and S. aureus were grown to mid-exponential phase and diluted in Muller Hinton broth (MHB) medium to a cell density of 0.1 by taking absorbance at 600 nm and incubated at 37° C. for 1 h with 10 μg/ml Chain peptides. After incubation, an equal volume of 2% glutaraldehyde in 0.1 M phosphate buffer was added and the cells were pelleted by centrifugation at 5000 rpm for 2 minutes, and the cell pellet was fixed with 1% glutaraldehyde in 0.1 M phosphate. Cells were post-fixed with osmium tetroxide, dehydrated using increasing concentrations of acetone or alcohol, and embedded in plastic resin (Epon). Ultrathin sections (70-80 nm) were post-stained with uranyl acetate and lead citrate before observation with TEM. Microscopy was performed with a Tecnai G2 Spirit 120 kV TEM with Veleta and Quemesa CCD cameras.

S. aureus = experiment: Antibacterial activity analysis of En-MAP1 protein; format: cell-based, Staphylococcus aureus
Description: Both folded and unfolded proteins were tested for antibacterial activity against S. aureus by pipetting 10 μg of protein on the S. aureus culture on an LB plate. The activity was also tested in folded and unfolded protein digested with trypsin in 0.01% acetic acid at concentrations of 30 and 60 μg/ml.

Row | Molecule | Minimum inhibitory concentration, Klebsiella pneumoniae (ATCC 10031) [1] [µg/mL] | Minimum inhibitory concentration, Escherichia coli (ATCC 25922) [2] [µg/mL] | Minimum inhibitory concentration, Staphylococcus aureus (ATCC 25923) [3] [µg/mL] | Minimum inhibitory concentration, Pseudomonas aeruginosa (ATCC 27853) [4] [µg/mL] | increase in MIC values with NaCl (4 ATCC bacterial strains) [fold] | activity against the four ATCC strains [5] | antifungal activity against Penicillium chrysogenum [6] | pH stability (zone of inhibition) [7] | antifungal activity against Aspergillus flavus [8] | thermostability (antibacterial activity kept after incubation) [9] | side effects to humans as tested by hemolysis assay (human erythrocytes) | TEM observation of E. coli cells (E. coli) | antibacterial activity against S. aureus, trypsin digest of folded protein (S. aureus; folded full protein digested with trypsin) | antibacterial activity against S. aureus (S. aureus; folded protein or expressed fragments) | antibacterial activity against S. aureus, trypsin digest of unfolded protein (S. aureus; unfolded protein digested with trypsin)
1 | CC[C@H](C)[C@H](NC(=O)[C@H](CCCCN)NC(=O)[C@H](CCCNC(=N)N)NC(=O)[C@H](Cc1c[nH]c2ccccc12)NC(=O)[C@H](CCCNC(=N)N)NC(=O)[C@@H](NC(=O)[C@@H](NC(=O)[C@H](CCCNC(=N)N)NC(=O)[C@@H](N)Cc1c[nH]c2ccccc12)[C@@H](C)CC)C(C)C)C(=O)N[C@@H](CCCCN)C(=O)N[C@@H](CCCNC(=N)N)C(=O)O [Chain209] (H-WRIVRWRKIKR-OH; N-terminus and C-terminus assumed) | >128 | 64 (≈ 40.1 µM) | >128 | >128 |  |  |  |  |  |  |  |  |  |  | 
2 | CC(C)C[C@H](NC(=O)[C@H](CCCNC(=N)N)NC(=O)[C@H](Cc1c[nH]c2ccccc12)NC(=O)[C@H](CCCNC(=N)N)NC(=O)[C@H](CCCCN)NC(=O)[C@H](CC(C)C)NC(=O)[C@@H](N)CCCNC(=N)N)C(=O)N[C@@H](Cc1ccccc1)C(=O)N[C@@H](CCCNC(=N)N)C(=O)N[C@@H](CCCCN)C(=O)N[C@@H](CCCNC(=N)N)C(=O)O [Chain306] (H-RLKRWRLFRKR-OH; N-terminus and C-terminus assumed) |  |  |  |  | 2 | very active | has activity; also recorded: particularly active | not hindered by pH | has activity; also recorded: particularly active | not hindered by pH or temperature even upto 45 °C for over 14 days |  |  |  |  | 
3 | CC(C)C[C@H](NC(=O)[C@H](CC(C)C)NC(=O)[C@H](Cc1ccccc1)NC(=O)[C@H](Cc1c[nH]c2ccccc12)NC(=O)[C@H](CCCCN)NC(=O)[C@H](CC(C)C)NC(=O)[C@@H](N)CCCNC(=N)N)C(=O)N[C@@H](Cc1ccccc1)C(=O)N[C@@H](CCCNC(=N)N)C(=O)N[C@@H](CCCCN)C(=O)N[C@@H](CCCNC(=N)N)C(=O)O [Chain308] (H-RLKWFLLFRKR-OH; N-terminus and C-terminus assumed) |  |  |  |  | 2 | very active | has activity; also recorded: particularly active | not hindered by pH | has activity; also recorded: particularly active | not hindered by pH or temperature even upto 45 °C for over 14 days | little side effects | almost all E. coli cells had lost their rod-shaped structural integrity |  |  | 
4 | En-MAP1: protein of 549 amino acids from an endophyte of Empetrum nigrum, GenBank KC466596 (protein, listed as Empetrum nigrum) MRLVAHPVPDAPLYALMIKACSMGIPQPNDNLWKPRNPLLAKEEKTSKRGRTAPDTERALDLFREMTLRYNIRPTAEVYTAIIAACVKRDDMYDKGFGLFKKMVELERNRMSSEGHDSTSFAPTRATYNALLRGCARNKDLLRARWILAEMLRTAQAKWQEFMEKSKKGEEGVQEWELLEVEEMRPDTNTMAFLFYTYASHTTSSKAVPETEGKKELEGKAEERASEVTSVSPVSEPPEPMDESKLVYSLPTSSQAILREVTSLLDRIKSDQGQQSNLLSSVQINSKLLNSYIAVLSAHCRSSQVVERISEVVVGTKENPKSLFEETGTSVNGYTCFTVIDACGMMEHSPDTYHLACEMWQRWLSLVENATFHRENPLKAKEIGLDSRTISDCWSAMIRLHAKYNQVDEAMKLVHEFARLYPPASLFNSLTFEPSSTSSSSLSPRKGVQEISPLFSSTSLTHSIRGRDISRIQNTMSQDPTLQFRAVQILHLRLVELETRPKDLAYLSWLLKSYEHQLQPKRPKSLQGDLFTSRQAAYNRIVQQRTSSR |  |  |  |  |  |  |  |  |  |  |  |  | antibacterial activity was observed for up to two hours after digestion | no activity was observed | No activity was detected
